Calls of active or inactive are those of the source. The calls are words filed in the database; no cut-off is given here.
How the values were obtained:
Rattus norvegicus [1] = test: Antiallodynic activity in Wistar albino rat chronic constriction injury-induced neuropathic pain model assessed as reversal of spontaneous pain response up to 2 hrs at 100 mg/kg, ip; format: functional, organism-based; design: dose 100 mg/kg
Rattus norvegicus [2] = test: Antiallodynic activity in Wistar albino rat chronic constriction injury-induced neuropathic pain model assessed as attenuation of mechanical allodynia after 0.5 hrs at 100 mg/kg, ip; format: functional, organism-based; design: dose 100 mg/kg
Rattus norvegicus [3] = test: Antiallodynic activity in Wistar albino rat chronic constriction injury-induced neuropathic pain model assessed as attenuation of mechanical allodynia measured as paw withdrawal latency at 100 mg/kg, ip; format: functional; conditions: route intraperitoneal
Rattus norvegicus [4] = test: Antiallodynic activity in Wistar albino rat chronic constriction injury-induced neuropathic pain model assessed as attenuation of cold allodynia measured as paw withdrawal duration at 100 mg/kg, ip; format: functional; conditions: route intraperitoneal
Rattus norvegicus [5] = test: Antiallodynic activity in Wistar albino rat chronic constriction injury-induced neuropathic pain model assessed as reversal of spontaneous pain response at 100 mg/kg, ip; format: functional, organism-based; design: dose 100 mg/kg
Rattus norvegicus [6] = test: Antihyperalgesic activity in Wistar albino rat chronic constriction injury-induced neuropathic pain model assessed as attenuation of mechanical pinkprick-induced hyperalgesia after 1.5 at 100 mg/kg, ip; format: functional, organism-based; design: dose 100 mg/kg
Rattus norvegicus [7] = test: Antiallodynic activity in Wistar albino rat chronic constriction injury-induced neuropathic pain model assessed as reversal of spontaneous pain response measured as withdrawal duration at 100 mg/kg, ip; format: functional; conditions: route intraperitoneal
Rattus norvegicus [8] = test: Antiallodynic activity in Wistar albino rat chronic constriction injury-induced neuropathic pain model assessed as reversal of spontaneous pain response after 0.5 hrs at 100 mg/kg, ip; format: functional, organism-based; design: dose 100 mg/kg
Rattus norvegicus [9] = test: Antihyperalgesic activity in Wistar albino rat chronic constriction injury-induced neuropathic pain model assessed as attenuation of mechanical pinkprick-induced hyperalgesia up to 2.5 at 100 mg/kg, ip; format: functional, organism-based; design: dose 100 mg/kg
Rattus norvegicus [10] = test: Antiallodynic activity in Wistar albino rat chronic constriction injury-induced neuropathic pain model assessed as reversal of spontaneous pain response at 100 mg/kg, ip relative to gabapentin; format: functional; conditions: route intraperitoneal
Rattus norvegicus [11] = test: Antiallodynic activity in Wistar albino rat chronic constriction injury-induced neuropathic pain model assessed as attenuation of mechanical allodynia at 100 mg/kg, ip; format: functional, organism-based; design: dose 100 mg/kg
Rattus norvegicus [12] = test: Antiallodynic activity in Wistar albino rat chronic constriction injury-induced neuropathic pain model assessed as reversal of spontaneous pain response after 1 hrs at 100 mg/kg, ip; format: functional, organism-based; design: dose 100 mg/kg
Rattus norvegicus [13] = test: Antiallodynic activity in Wistar albino rat chronic constriction injury-induced neuropathic pain model assessed as attenuation of cold allodynia at 100 mg/kg, ip relative to carbamazepine and lamotrigine; format: functional; conditions: route intraperitoneal
Rattus norvegicus [14] = test: Antiallodynic activity in Wistar albino rat chronic constriction injury-induced neuropathic pain model assessed as attenuation of mechanical allodynia after 1.5 hrs at 100 mg/kg, ip; format: functional, organism-based; design: dose 100 mg/kg
Rattus norvegicus [15] = test: Antiallodynic activity in Wistar albino rat chronic constriction injury-induced neuropathic pain model assessed as attenuation of cold allodynia at 100 mg/kg, ip; format: functional, organism-based; design: dose 100 mg/kg
Rattus norvegicus [16] = test: Antihyperalgesic activity in Wistar albino rat chronic constriction injury-induced neuropathic pain model assessed as attenuation of mechanical pinkprick-induced hyperalgesia after 0.5 to 1 at 100 mg/kg, ip; format: functional, organism-based; design: dose 100 mg/kg
Rattus norvegicus [17] = test: Antiallodynic activity in Wistar albino rat chronic constriction injury-induced neuropathic pain model assessed as reversal of spontaneous pain response up to 1 hr at 100 mg/kg, ip; format: functional, organism-based; design: dose 100 mg/kg
Rattus norvegicus [18] = test: Antiallodynic activity in Wistar albino rat chronic constriction injury-induced neuropathic pain model assessed as attenuation of cold allodynia after 0.5 to 1 hr at 100 mg/kg, ip; format: functional, organism-based; design: dose 100 mg/kg
Rattus norvegicus [19] = test: Antihyperalgesic activity in Wistar albino rat chronic constriction injury-induced neuropathic pain model assessed as attenuation of mechanical pinkprick-induced hyperalgesia after 0.5 to 1.5 at 100 mg/kg, ip; format: functional, organism-based; design: dose 100 mg/kg
Rattus norvegicus [20] = test: Antiallodynic activity in Wistar albino rat chronic constriction injury-induced neuropathic pain model assessed as attenuation of cold allodynia after 1 to 2.5 hrs at 100 mg/kg, ip; format: functional, organism-based; design: dose 100 mg/kg

| Structure (SMILES) | Activity (Rattus norvegicus [2]) | Time (Rattus norvegicus [3]) | Time (Rattus norvegicus [4]) | Activity (Rattus norvegicus [5]) | Activity (Rattus norvegicus [6]) | Time (Rattus norvegicus [7]) | Activity (Rattus norvegicus [8]) | Activity (Rattus norvegicus [11]) | Activity (Rattus norvegicus [15]) | further results |
| --- | --- | --- | --- | --- | --- | --- | --- | --- | --- | --- |
| Nc1nnc(-c2cccc(Cl)c2Cl)c(N)n1 | Active | – | – | – | – | – | – | – | – | Activity (Rattus norvegicus [1]): Active |
| C/C(=N\NC(=O)c1ccc(-c2ccc([N+](=O)[O-])cc2)o1)c1ccc(Br)cc1 | Active | 2.5 h | 2.5 h | inactive | inactive | – | – | – | – | – |
| O=C(N/N=C/c1ccc([N+](=O)[O-])o1)c1ccc(-c2ccc([N+](=O)[O-])cc2)o1 | – | 2.5 h | 2.5 h | – | Active | 2.5 h | Active | – | – | – |
| COc1ccc(/C=N/NC(=O)c2ccc(-c3ccc([N+](=O)[O-])cc3)o2)cc1 | – | – | 2.5 h | – | – | 2.5 h | Active | inactive | – | Activity (Rattus norvegicus [9]): Active; fold change (FC) (Rattus norvegicus [10]): 5 |
| O=C(N/N=C/c1ccc(Br)cc1)c1ccc(-c2ccc([N+](=O)[O-])cc2)o1 | – | – | 2.5 h | – | – | 2.5 h | – | inactive | – | Activity (Rattus norvegicus [9]): Active; Activity (Rattus norvegicus [12]): Active; fold change (FC) (Rattus norvegicus [13]): 6 |
| COc1cc(/C=N/NC(=O)c2ccc(-c3ccc([N+](=O)[O-])cc3)o2)ccc1O | – | 2.5 h | – | – | inactive | 2.5 h | Active | – | inactive | Activity (Rattus norvegicus [14]): Active |
| C/C(=N\NC(=O)c1ccc(-c2ccc([N+](=O)[O-])cc2)o1)c1ccc(F)cc1 | – | – | – | inactive | inactive | – | – | inactive | inactive | – |
| C/C(=N\NC(=O)c1ccc(-c2ccc([N+](=O)[O-])cc2)o1)c1ccccc1 | Active | 2.5 h | 2.5 h | – | – | 2.5 h | Active | – | – | Activity (Rattus norvegicus [16]): Active |
| Cc1ccc(/C=N/NC(=O)c2ccc(-c3ccc([N+](=O)[O-])cc3)o2)cc1 | – | – | – | inactive | Active | – | – | inactive | inactive | – |
| NC(=O)N1c2ccccc2C=Cc2ccccc21 [CARBAMAZEPINE] | – | 2.5 h | – | – | – | – | – | – | – | Activity (Rattus norvegicus [17]): Active; Activity (Rattus norvegicus [18]): Active |
| C/C(=N\NC(=O)c1ccc(-c2ccc([N+](=O)[O-])cc2)o1)c1ccc(C)cc1 | Active | 2.5 h | – | inactive | – | – | – | – | inactive | Activity (Rattus norvegicus [19]): Active |
| NCC1(CC(=O)O)CCCCC1 [GABAPENTIN] | – | 2.5 h | – | – | – | 1 h | – | – | – | Activity (Rattus norvegicus [20]): Active |
| O=C(N/N=C/c1ccccc1)c1ccc(-c2ccc([N+](=O)[O-])cc2)o1 | – | 2 h | 2.5 h | – | inactive | 2.5 h | Active | – | – | – |
